Laboratory results taken from ChEMBL document CHEMBL1201861, “Genomics of Drug Sensitity in Cancer screening data, Wellcome Trust Sanger Institute”.

How the values were obtained:
Test in all cases: cells
D-263MG = assay type: functional, cell-based, Homo sapiens; conditions: Homo sapiens, D-263MG
Description: SANGER: Inhibition of human D-263MG cell growth in a cell viability assay.

DSH1 = assay type: functional, cell-based; conditions: Homo sapiens;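 note: growth inhibition of human DSH1 cells, measured with a cell viability readout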
Description: SANGER: Inhibition of human DSH1 cell growth in a cell viability assay.

ES1 = assay type: functional, cell-based, Homo sapiens; conditions: Homo sapiens, ES1;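 note: growth inhibition of ES1 cells, read out with a cell viability assay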
Description: SANGER: Inhibition of human ES1 cell growth in a cell viability assay.

ES3 = assay type: functional, cell-based, Homo sapiens; conditions: Homo sapiens, ES3;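 note: growth inhibition of ES3 cells, read out with a cell viability assay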
Description: SANGER: Inhibition of human ES3 cell growth in a cell viability assay.

ES7 = assay type: functional, cell-based, Homo sapiens; conditions: Homo sapiens, ES7;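 note: growth inhibition of cultured human ES7 cells, read out as cell viability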
Description: SANGER: Inhibition of human ES7 cell growth in a cell viability assay.

EW-16 = assay type: functional, cell-based, Homo sapiens; conditions: Homo sapiens, EW-16;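 note: growth inhibition of human EW-16 cells, read out as cell viability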
Description: SANGER: Inhibition of human EW-16 cell growth in a cell viability assay.

GOTO = assay type: functional, cell-based, Homo sapiens; conditions: Homo sapiens, GOTO;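 note: growth inhibition of GOTO cells, read out by a cell viability assay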
Description: SANGER: Inhibition of human GOTO cell growth in a cell viability assay.

GT3TKB = assay type: functional, cell-based, Homo sapiens; conditions: Homo sapiens, GT3TKB;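 note: growth inhibition of the cell line, read out with a cell viability assay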
Description: SANGER: Inhibition of human GT3TKB cell growth in a cell viability assay.

HL-60 = assay type: functional, cell-based, Homo sapiens; conditions: Homo sapiens, HL-60;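 note: growth inhibition of human HL-60 cells, read out with a cell viability assay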
Description: SANGER: Inhibition of human HL-60 cell growth in a cell viability assay.

IA-LM = assay type: functional, cell-based; conditions: Homo sapiens;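 note: cell viability assay measuring growth inhibition of human IA-LM cells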
Description: SANGER: Inhibition of human IA-LM cell growth in a cell viability assay.

IST-MEL1 = assay type: functional, cell-based, Homo sapiens; conditions: Homo sapiens, IST-MEL1;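 note: growth inhibition of the cell line, read out with a cell viability assay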
Description: SANGER: Inhibition of human IST-MEL1 cell growth in a cell viability assay.

KALS-1 = assay type: functional, cell-based, Homo sapiens; conditions: Homo sapiens, KALS-1; read-out: IC50;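 note: growth inhibition of KALS-1 cells, determined with a cell viability assay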
Description: SANGER: Inhibition of human KALS-1 cell growth in a cell viability assay.

KINGS-1 = assay type: functional, cell-based, Homo sapiens; conditions: Homo sapiens, KINGS-1;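 note: cell viability assay measuring suppression of KINGS-1 cell growth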
Description: SANGER: Inhibition of human KINGS-1 cell growth in a cell viability assay.

KM-H2 = assay type: functional, cell-based, Homo sapiens; conditions: Homo sapiens, KM-H2;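 note: growth inhibition of KM-H2 cells, read out by a cell viability assay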
Description: SANGER: Inhibition of human KM-H2 cell growth in a cell viability assay.

KM12 = assay type: functional, cell-based, Homo sapiens; conditions: Homo sapiens, KM12;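 note: KM12 cell growth inhibition, read out with a cell viability assay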
Description: SANGER: Inhibition of human KM12 cell growth in a cell viability assay.

KNS-81-FD = assay type: functional, cell-based, Homo sapiens; conditions: Homo sapiens, KNS-81-FD;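 note: growth inhibition of KNS-81-FD cells, read out with a cell viability assay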
Description: SANGER: Inhibition of human KNS-81-FD cell growth in a cell viability assay.

LB2241-RCC = assay type: functional, cell-based, Homo sapiens; conditions: Homo sapiens, LB2241-RCC;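 note: cell viability assay measuring how strongly the cultured human renal carcinoma line is prevented from growing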
Description: SANGER: Inhibition of human LB2241-RCC cell growth in a cell viability assay.

LB2518-MEL = assay type: functional, cell-based; conditions: Homo sapiens;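 note: growth inhibition of human LB2518-MEL cells, measured with a cell viability assay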
Description: SANGER: Inhibition of human LB2518-MEL cell growth in a cell viability assay.

LS-1034 = assay type: functional, cell-based, Homo sapiens; conditions: Homo sapiens, LS-1034
Description: SANGER: Inhibition of human LS-1034 cell growth in a cell viability assay.

LXF-289 cell line = assay type: functional, cell-based; conditions: Homo sapiens
Description: SANGER: Inhibition of human LXF-289 cell growth in a cell viability assay.

MLMA = assay type: functional, cell-based, Homo sapiens; conditions: Homo sapiens, MLMA;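 note: growth inhibition of MLMA cells (human), determined through a cell viability readout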
Description: SANGER: Inhibition of human MLMA cell growth in a cell viability assay.

Mo = assay type: functional, cell-based, Homo sapiens; conditions: Homo sapiens, Mo
Description: SANGER: Inhibition of human Mo-T cell growth in a cell viability assay.

NB69 = assay type: functional, cell-based, Homo sapiens; conditions: Homo sapiens, NB69;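 note: growth inhibition of NB69 cells, determined by a cell viability assay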
Description: SANGER: Inhibition of human NB69 cell growth in a cell viability assay.

NCI-H1155 = assay type: functional, cell-based, Homo sapiens; conditions: Homo sapiens, NCI-H1155;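 note: cell growth inhibition measured by a viability assay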
Description: SANGER: Inhibition of human NCI-H1155 cell growth in a cell viability assay.

NCI-H1648 = assay type: functional, cell-based, Homo sapiens; conditions: Homo sapiens, NCI-H1648;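 note: cell viability assay measuring inhibition of NCI-H1648 cell growth, from the Sanger screening data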
Description: SANGER: Inhibition of human NCI-H1648 cell growth in a cell viability assay.

NCI-H1650 = assay type: functional, cell-based, Homo sapiens; conditions: Homo sapiens, NCI-H1650;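 note: growth inhibition of human NCI-H1650 cells measured by a cell viability assay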
Description: SANGER: Inhibition of human NCI-H1650 cell growth in a cell viability assay.

NCI-H226 = assay type: functional, cell-based, Homo sapiens; conditions: Homo sapiens, NCI-H226;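 note: cell viability read-out used to gauge growth inhibition of the cells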
Description: SANGER: Inhibition of human NCI-H226 cell growth in a cell viability assay.

NCI-H446 = assay type: functional, cell-based, Homo sapiens; conditions: Homo sapiens, NCI-H446;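 note: growth inhibition of NCI-H446 cells determined by a cell viability assay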
Description: SANGER: Inhibition of human NCI-H446 cell growth in a cell viability assay.

NOMO-1 = assay type: functional, cell-based, Homo sapiens; conditions: Homo sapiens, NOMO-1;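 note: growth inhibition of human NOMO-1 cells measured by a cell viability assay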
Description: SANGER: Inhibition of human NOMO-1 cell growth in a cell viability assay.

OS-RC-2 = assay type: functional, cell-based, Homo sapiens; conditions: Homo sapiens, OS-RC-2;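 note: growth inhibition of human OS-RC-2 cells, measured by a cell viability assay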
Description: SANGER: Inhibition of human OS-RC-2 cell growth in a cell viability assay.

OVCAR-4 = assay type: functional, cell-based, Homo sapiens; conditions: Homo sapiens, OVCAR-4;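 note: growth inhibition of human OVCAR-4 cells, measured with a cell viability assay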
Description: SANGER: Inhibition of human OVCAR-4 cell growth in a cell viability assay.

PSN1 = assay type: functional, cell-based, Homo sapiens; conditions: Homo sapiens, PSN1;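 note: suppression of growth of human PSN1 cells, read out by a cell viability assay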
Description: SANGER: Inhibition of human PSN1 cell growth in a cell viability assay.

RH-1 = assay type: functional, cell-based, Homo sapiens; conditions: Homo sapiens, RH-1;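 note: growth inhibition of human RH-1 cells, read out with a cell viability assay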
Description: SANGER: Inhibition of human RH-1 cell growth in a cell viability assay.

RPMI-8226 = assay type: functional, cell-based, Homo sapiens; conditions: Homo sapiens, RPMI-8226
Description: SANGER: Inhibition of human RPMI-8226 cell growth in a cell viability assay.

SF-268 = assay type: functional, cell-based, Homo sapiens; conditions: Homo sapiens, SF-268;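 note: growth inhibition of SF-268 cells determined with a cell viability assay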
Description: SANGER: Inhibition of human SF268 cell growth in a cell viability assay.

SK-N-DZ = assay type: functional, cell-based, Homo sapiens; conditions: Homo sapiens, SK-N-DZ; read-out: IC50;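 note: growth inhibition of the cancer cell line, read out through a viability assay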
Description: SANGER: Inhibition of human SK-N-DZ cell growth in a cell viability assay.

SK-N-FI = assay type: functional, cell-based, Homo sapiens; conditions: Homo sapiens, SK-N-FI;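 note: cell viability assay measuring growth inhibition of human SK-N-FI cells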
Description: SANGER: Inhibition of human SK-N-FI cell growth in a cell viability assay.

SNU-C2B = assay type: functional, cell-based; conditions: Homo sapiens;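 note: cell viability readout used to measure compound-driven suppression of SNU-C2B cell proliferation, IC50 marking half-maximal growth inhibition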
Description: SANGER: Inhibition of human SNU-C2B cell growth in a cell viability assay.

SW 954 = assay type: functional, cell-based, Homo sapiens; conditions: Homo sapiens, SW 954;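 note: growth inhibition of SW954 human cancer cells, read out as cell viability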
Description: SANGER: Inhibition of human SW954 cell growth in a cell viability assay.

SW982 = assay type: functional, cell-based; conditions: Homo sapiens;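 note: growth inhibition of SW982 cells, read out with a cell viability assay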
Description: SANGER: Inhibition of human SW982 cell growth in a cell viability assay.

A4-Fuk = assay type: functional, cell-based, Homo sapiens; conditions: Homo sapiens, A4-Fuk;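 note: growth inhibition of A4-Fuk cells, read out by a cell viability assay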
Description: SANGER: Inhibition of human A4-Fuk cell growth in a cell viability assay.

AM-38 = assay type: functional, cell-based, Homo sapiens; conditions: Homo sapiens, AM-38;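 note: growth inhibition of AM-38 cells of human origin, read out by a cell viability assay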
Description: SANGER: Inhibition of human AM-38 cell growth in a cell viability assay.

C2BBe1 = assay type: functional, cell-based, Homo sapiens; conditions: Homo sapiens, C2BBe1;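 note: growth inhibition of C2BBe1 cells, read out through a viability assay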
Description: SANGER: Inhibition of human C2BBe1 cell growth in a cell viability assay.

TGBC1TKB = assay type: functional, cell-based, Homo sapiens; conditions: Homo sapiens, TGBC1TKB;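 note: growth inhibition of TGBC1TKB cells, read out by a cell viability assay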
Description: SANGER: Inhibition of human TGBC1TKB cell growth in a cell viability assay.

CGTH-W-1 = assay type: functional, cell-based, Homo sapiens; conditions: Homo sapiens, CGTH-W-1;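 note: growth inhibition of human CGTH-W-1 cells measured by cell viability assay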
Description: SANGER: Inhibition of human CGTH-W-1 cell growth in a cell viability assay.

COLO-684 = assay type: functional, cell-based, Homo sapiens; conditions: Homo sapiens, COLO-684
Description: SANGER: Inhibition of human COLO-684 cell growth in a cell viability assay.

EW-18 = assay type: functional, cell-based, Homo sapiens; conditions: Homo sapiens, EW-18; read-out: IC50;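 note: growth inhibition of EW-18 cells, read out by a cell viability assay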
Description: SANGER: Inhibition of human EW-18 cell growth in a cell viability assay.

KARPAS-45 = assay type: functional, cell-based, Homo sapiens; conditions: Homo sapiens, KARPAS-45;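 note: inhibition of cell line growth, read out through a viability assay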
Description: SANGER: Inhibition of human KARPAS-45 cell growth in a cell viability assay.

SBC-1 = assay type: functional, cell-based, Homo sapiens; conditions: Homo sapiens, SBC-1;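 note: cell viability assay measuring growth inhibition of the SBC-1 cell line, IC50 being the concentration that halves growth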
Description: SANGER: Inhibition of human SBC-1 cell growth in a cell viability assay.

In the case of `O=C(NCCCNc1nc(Nc2cccc(NC(=O)N3CCCC3)c2)ncc1I)c1cccs1` [BX-795], the IC50 (D-263MG) is reported as 2.38 µM, the IC50 (DSH1) is reported as > 5 µM and the IC50 (ES1) is reported as 1750 nM. The IC50 (ES3) was 2620 nM, the IC50 (ES7) was 836 nM and the IC50 (EW-16) was 4.31 µM. The IC50 (GOTO) was > 5 µM, the IC50 (GT3TKB) was 1900 nM and the IC50 (HL-60) was 2.54 µM. For the same molecule, the IC50 (IA-LM) was 4.85 µM, the IC50 (IST-MEL1) was > 5 µM and the IC50 (KALS-1) was 3.31 µM. The IC50 (KINGS-1) was 3.7 µM, the IC50 (KM-H2) was > 5 µM and the IC50 (KM12) was 3.3 µM. The IC50 (KNS-81-FD) was > 5 µM, the IC50 (LB2241-RCC) was 2690 nM and the IC50 (LB2518-MEL) was > 5 µM. The IC50 (LS-1034) was > 5 µM, the IC50 (LXF-289 cell line) was 657 nM and the IC50 (MLMA) was > 5 µM. For the same molecule, the IC50 (Mo) was > 5 µM, the IC50 (NB69) was 1160 nM and the IC50 (NCI-H1155) was 2.69 µM. The IC50 (NCI-H1648) was > 5 µM, the IC50 (NCI-H1650) was > 5 µM and the IC50 (NCI-H226) was > 5 µM. For the same molecule, the IC50 (NCI-H446) was 4.93 µM, the IC50 (NOMO-1) was > 5 µM and the IC50 (OS-RC-2) was > 5 µM. For the same molecule, the IC50 (OVCAR-4) was > 5 µM, the IC50 (PSN1) was 2790 nM and the IC50 (RH-1) was 1700 nM. The IC50 (RPMI-8226) was > 5 µM, the IC50 (SF-268) was 4.02 µM and the IC50 (SK-N-DZ) was > 5 µM. The IC50 (SK-N-FI) was > 5 µM, the IC50 (SNU-C2B) was > 5 µM and the IC50 (SW 954) was 3.44 µM. For the same molecule, the IC50 (SW982) was 951 nM, the IC50 (A4-Fuk) was > 5000 nM and the IC50 (AM-38) was > 5 µM. The IC50 (C2BBe1) was > 5000 nM, the IC50 (TGBC1TKB) was > 5 µM and the IC50 (CGTH-W-1) was 971 nM. For the same molecule, the IC50 (COLO-684) was > 5 µM.
In the case of `NC1(c2ccc(-c3nc4ccn5c(=O)[nH]nc5c4cc3-c3ccccc3)cc2)CCC1` [MK-2206], the IC50 (D-263MG) is reported as > 4 µM, the IC50 (DSH1) is reported as > 4 µM and the IC50 (ES1) is reported as 1240 nM. The IC50 (ES3) was 2500 nM, the IC50 (ES7) was > 4000 nM and the IC50 (EW-16) was 3.22 µM. For the same molecule, the IC50 (EW-18) was 2420 nM, the IC50 (GOTO) was > 4 µM and the IC50 (GT3TKB) was > 4000 nM. The IC50 (HL-60) was > 4 µM, the IC50 (IA-LM) was > 4 µM and the IC50 (IST-MEL1) was > 4 µM. For the same molecule, the IC50 (KARPAS-45) was 373 nM, the IC50 (KINGS-1) was > 4 µM and the IC50 (KM-H2) was > 4 µM. The IC50 (KM12) was > 4 µM, the IC50 (KNS-81-FD) was > 4 µM and the IC50 (LB2241-RCC) was 997 nM. The IC50 (LB2518-MEL) was > 4 µM, the IC50 (LS-1034) was > 4 µM and the IC50 (LXF-289 cell line) was 1170 nM. The IC50 (MLMA) was > 4 µM, the IC50 (Mo) was > 4 µM and the IC50 (NB69) was 2390 nM. The IC50 (NCI-H1155) was > 4 µM, the IC50 (NCI-H1650) was > 4 µM and the IC50 (NCI-H226) was > 4 µM. For the same molecule, the IC50 (NCI-H446) was > 4 µM, the IC50 (NOMO-1) was > 4 µM and the IC50 (OS-RC-2) was 3.11 µM. The IC50 (OVCAR-4) was > 4 µM, the IC50 (PSN1) was > 4000 nM and the IC50 (RH-1) was > 4000 nM. For the same molecule, the IC50 (RPMI-8226) was 2.63 µM, the IC50 (SBC-1) was 440 nM and the IC50 (SF-268) was > 4 µM. For the same molecule, the IC50 (SK-N-DZ) was > 4 µM, the IC50 (SK-N-FI) was > 4 µM and the IC50 (SNU-C2B) was > 4 µM. For the same molecule, the IC50 (SW 954) was > 4 µM, the IC50 (SW982) was > 4000 nM and the IC50 (A4-Fuk) was 469 nM. For the same molecule, the IC50 (AM-38) was > 4 µM, the IC50 (C2BBe1) was > 4000 nM and the IC50 (TGBC1TKB) was > 4 µM. For the same molecule, the IC50 (CGTH-W-1) was > 4000 nM and the IC50 (COLO-684) was 1.24 µM.
With `CN(C)CCOc1ccc(-c2nc(-c3ccncc3)c(-c3ccc4c(c3)CC/C4=N\O)[nH]2)cc1` [SB590885] the IC50 (D-263MG) was > 5 µM, the IC50 (DSH1) was > 5 µM and the IC50 (ES1) was > 5000 nM. For the same molecule, the IC50 (ES3) was > 5000 nM, the IC50 (ES7) was > 5000 nM and the IC50 (EW-16) was > 5 µM. The IC50 (EW-18) was > 5000 nM, the IC50 (GOTO) was > 5 µM and the IC50 (GT3TKB) was > 5000 nM. For the same molecule, the IC50 (HL-60) was > 5 µM, the IC50 (IA-LM) was > 5 µM and the IC50 (IST-MEL1) was > 5 µM. The IC50 (KARPAS-45) was 3920 nM, the IC50 (KINGS-1) was > 5 µM and the IC50 (KM-H2) was > 5 µM. The IC50 (KM12) was > 5 µM, the IC50 (KNS-81-FD) was > 5 µM and the IC50 (LB2241-RCC) was > 5000 nM. For the same molecule, the IC50 (LB2518-MEL) was > 5 µM, the IC50 (LS-1034) was > 5 µM and the IC50 (LXF-289 cell line) was > 5000 nM. The IC50 (MLMA) was > 5 µM, the IC50 (Mo) was > 5 µM and the IC50 (NB69) was > 5000 nM. The IC50 (NCI-H1155) was > 5 µM, the IC50 (NCI-H1650) was > 5 µM and the IC50 (NCI-H226) was > 5 µM. The IC50 (NCI-H446) was > 5 µM, the IC50 (NOMO-1) was > 5 µM and the IC50 (OS-RC-2) was > 5 µM. For the same molecule, the IC50 (OVCAR-4) was > 5 µM, the IC50 (PSN1) was 1870 nM and the IC50 (RH-1) was > 5000 nM. The IC50 (RPMI-8226) was > 5 µM, the IC50 (SBC-1) was > 5000 nM and the IC50 (SF-268) was > 5 µM. For the same molecule, the IC50 (SK-N-DZ) was > 5 µM, the IC50 (SK-N-FI) was > 5 µM and the IC50 (SNU-C2B) was > 5 µM. For the same molecule, the IC50 (SW 954) was > 5 µM, the IC50 (SW982) was > 5000 nM and the IC50 (A4-Fuk) was > 5000 nM. The IC50 (AM-38) was > 5 µM, the IC50 (C2BBe1) was 1960 nM and the IC50 (TGBC1TKB) was > 5 µM. For the same molecule, the IC50 (CGTH-W-1) was > 5000 nM and the IC50 (COLO-684) was > 5 µM.
